Values of other authors as cited in patent US9993560B2, “Rifaximin complexes” (Cipla Limited, priority 2008, dated 2018).

| SMILES | solubility in water (water) | solubility compared with other known forms of rifaximin |
| --- | --- | --- |
| CO[C@H]1/C=C/O[C@@]2(C)Oc3c(C)c(O)c4c(O)c(c5c(nc6cc(C)ccn65)c4c3C2=O)NC(=O)/C(C)=C\C=C\[C@H](C)[C@H](O)[C@@H](C)[C@@H](O)[C@@H](C)[C@H](OC(C)=O)[C@@H]1C [rifaximin, (2S, 16Z, 18E, 20S, 21S, 22R, 23R, 24R, 25S, 26S, 27S, 28E)-5,6,21,23,25-pentahydroxy-27-methoxy-2,4,11,16,20,22,24,26-octamethyl-2,7-(epoxypentadeca-[1,11,13]-trienimino)benzofuro-[4,5-e]-pyrido-[1,2-a]-benzimidazole-1,15-(2H)-dione, 25-acetate] | sparingly soluble | – |
| CO[C@H]1/C=C/O[C@@]2(C)Oc3c(C)c(O)c4c(O)c(c5c(nc6cc(C)ccn65)c4c3C2=O)NC(=O)/C(C)=C\C=C\[C@H](C)[C@H](O)[C@@H](C)[C@@H](O)[C@@H](C)[C@H](OC(C)=O)[C@@H]1C [β-form of rifaximin] | – | least soluble known form of rifaximin |
